Source: US20110136728A1, “METHODS OF INCREASING BONE FORMATION USING LEPTIN-RELATED PEPTIDES” (priority 2009, published 2011)
Several values for one entry are separate records, joined by “and”; a condition that tells them apart may be missing. Identical values can stand only once. Non-standard residues stand in square brackets, D forms with d. Residues, ends and D or L forms follow the SMILES beside them.

Test system: male C57BLK/6-m db/db mice
Test: Intranasal delivery in db/db mice: body weight, food and water intake, serum glucose, insulin, osteocalcin
Assay type: in vivo, mouse
Experimental: Each bar and vertical line represents mean±SEM serum glucose level (n=6).
FIG. 17. Effects of intranasal administration of mouse [D-Leu-4]-OB3 (1 mg/day, 14 days) on body weight gain in C57BLk/6-m db/db mice. […] Each point represents the mean±standard error of mean change in body weight for a group of six mice.
In the present study, the effects of intranasal administration of mouse [D-Leu-4]-OB3 in Intravail® on energy balance, serum osteocalcin, and serum insulin levels in genetically obese male C57BLK/6-m db/db mice allowed food and water ad libitum were examined. […] (See FIGS. 12 and 13). […] (See FIGS. 14 and 15).
In the present study, the effects of intranasal delivery of mouse [D-Leu-4]-OB3 in Intravail® on energy balance, glucose regulation, insulin secretion, and serum levels of osteocalcin, a specific and sensitive marker of bone formation were examined Genetically obese C57BLK/6-m db/db mice were allowed food and water ad libitum, and given either Intravail® alone or mouse [D-Leu-4]-OB3 in Intravail® for 14 days. […] Serum insulin levels in db/db mice given mouse [D-Leu-4]-OB3 were approximately 3-fold lower than those in mice receiving Intravail® alone. Mouse [D-Leu-4]-OB3 elevated serum osteocalcin in db/db mice by 28.7% over Intravail® treated control mice. […] In addition, its effects on bone turnover may also be useful in the prevention and/or reversal of at least some of the bone loss which accompanies osteoporosis, anorexia nervosa, cancer, and other wasting diseases not associated with the obesity syndrome.

[1] = 1 mg/day, 14 days, intranasal in Intravail

Compound: CC(C)C[C@@H](NC(=O)[C@H](CO)NC(=O)[C@H](CS)NC(=O)[C@@H](N)CO)C(=O)N1CCC[C@H]1C(=O)N[C@@H](CCC(N)=O)C(=O)N[C@H](C(N)=O)[C@@H](C)O [mouse [D-Leu-4]-OB3] (H-SCS[dL]PQT-NH2; N-terminus assumed)
- Body weight (% of initial) [1]: 104.9 ± 1.4 % of initial
- Final body weight [1]: 37.0 ± 1.7 g
- Food intake [1]: 6.1 g/mouse/day and 6.1 ± 0.3 g/mouse/day
- Serum insulin [1]: 0.95 ng/mL and 0.95 ± 0.03 ng/mL
- Serum osteocalcin [1]: 470 ng/mL and 470.0 ± 20.0 ng/mL
- Water intake [1]: 21.2 ml/mouse/day and 21.2 ± 1.8 ml/mouse/day
- reduction of serum glucose (14 days intranasal in Intravail): 61.9%
- body weight increase over initial body weight (heavier) (after 14 days intranasal in Intravail): 4.9%
- Initial serum glucose (day 0): 472 ± 7.3 mg/dL
- Initial body weight (day 0, 1 mg/day, 14 days, intranasal in Intravail): 35.0 ± 1.1 g
- Final serum glucose (day 14, 1 mg/day intranasal in Intravail): 209 ± 89.4 mg/dL
